Reference: patent publication US20090143279A1 (priority 2007, published 2009)
Like-named read-outs stand apart in the source and are kept apart here.

How the values were obtained:
mtOXPHOS transcripts = type: cell-based, mouse; conditions: for mitoOX (composite Z-score): normalized score vs mock-treated (DMSO) wells
[1] = test system: cellular dehydrogenase activity; conditions: for MTT (composite Z-score): normalized score vs mock-treated (DMSO) wells
nuOXPHOS transcripts = type: cell-based, mouse; conditions: for nucOX (composite Z-score): normalized score vs mock-treated (DMSO) wells
cytochrome c = type: cell-based, mouse; conditions: for cyt c (composite Z-score): normalized score vs mock-treated (DMSO) wells
OXPHOS gene expression = type: cell-based, mouse; conditions: for GE-HTS (composite Z-score): normalized score vs mock-treated (DMSO) wells
reactive oxygen species = type: cell-based, mouse; conditions: for ROS (composite Z-score): normalized score vs mock-treated (DMSO) wells
[2] = test system: mitochondrial membrane potential; type: cell-based, mouse; conditions: for ΔΨm (composite Z-score): normalized score vs mock-treated (DMSO) wells
C2C12 myotubes = conditions: for Viability (composite Z-score): normalized score vs mock-treated (DMSO) wells
[3] = composite Z-score vs DMSO, Conc 20 μM
[4] = normalized composite Z-score vs mock-treated (DMSO) wells, Conc 20 μM
[5] = composite Z-score vs mock-treated (DMSO) wells, Conc 20 μM
[6] = 20 μM, composite Z-score vs DMSO

| SMILES | mitoOX (mtOXPHOS transcripts; [3]) | MTT [1, 3] | nucOX (nuOXPHOS transcripts; [3]) | cyt c (cytochrome c; [3]) | GE-HTS (OXPHOS gene expression; [3]) | ROS (reactive oxygen species; [3]) | ΔΨm [2, 3] | Viability (C2C12 myotubes; [3]) | mitoOX (mtOXPHOS transcripts; [4]) | MTT [1, 4] | nucOX (nuOXPHOS transcripts; [4]) | cyt c (cytochrome c; [4]) | GE-HTS (OXPHOS gene expression; [4]) | ROS (reactive oxygen species; [4]) | ΔΨm [2, 4] | Viability (C2C12 myotubes; [4]) | other results |
| --- | --- | --- | --- | --- | --- | --- | --- | --- | --- | --- | --- | --- | --- | --- | --- | --- | --- |
| CN[C@@H](C)[C@H](O)c1ccccc1 [ephedrine] | −0.056 | −2.342 | −0.100 | 0.077 | −0.074 | 1.633 | −0.834 | −0.536 |  |  |  |  |  |  |  |  |  |
| C=C[C@@](C)(O)CCC1C(=C)CCC2[C@@](C)(CO)CCC[C@]12C (stereo partly drawn) [epi(13)torulosol] |  |  |  |  |  |  |  |  | 0.643 | 0.603 | 0.342 | 0.483 | 0.491 | 1.180 | 0.022 | 0.367 |  |
| COc1ccc([C@H]2Oc3cc(OC)cc(OC)c3C[C@H]2O)cc1 [epiafzelechin trimethyl ether] |  |  |  |  |  |  |  |  | 0.350 | −0.884 | −0.134 | 1.099 | 0.019 | −0.190 | −0.324 | 0.557 |  |
| C[C@]12CCC3C(CC[C@H]4C[C@H](O)CC[C@]34C)C1CC[C@@H]2O (stereo partly drawn) [epiandrostanediol] | 0.190 | −0.207 | −0.203 | −0.201 | −0.069 | 0.113 | −0.156 | 1.143 |  |  |  |  |  |  |  |  |  |
| Oc1cc(O)c2c(c1)O[C@H](c1ccc(O)c(O)c1)[C@H](O)C2 [epicatechin, reference compound] | 0.641 | −1.915 | 0.310 | 0.110 | 0.431 | −0.465 | −2.452 | −1.380 | −0.631 | −1.556 | −0.773 | 0.850 | −0.754 | −0.199 | −1.802 | 0.687 | cyt c (cytochrome c): 0.446 |
| O=C(Oc1cc(O)cc2c1C[C@@H](OC(=O)c1cc(O)c(O)c(O)c1)[C@@H](c1cc(O)c(O)c(O)c1)O2)c1cc(O)c(O)c(O)c1 [epigallocatechin 3,5-digallate] |  |  |  |  |  |  |  |  | −1.133 | −1.667 | −1.625 | 1.040 | −1.581 | 0.118 | −2.135 | 0.969 |  |
| C/C1=C\CC(C)(C)/C=C/CC2(C)OC2CC1 (stereo not drawn) [epoxy (1,11)humulene] |  |  |  |  |  |  |  |  |  |  |  |  |  |  |  |  | mitoOX (composite Z-score) (mtOXPHOS transcripts; Conc 20 μM): −1.021; MTT (composite Z-score) ([1]; Conc 20 μM): −0.802; nucOX (composite Z-score) (nuOXPHOS transcripts; Conc 20 μM): −1.115; cyt c (composite Z-score) (cytochrome c; Conc 20 μM): 0.979; GE-HTS (composite Z-score) (OXPHOS gene expression; Conc 20 μM): −1.172; ROS (composite Z-score) (reactive oxygen species; Conc 20 μM): −0.355; ΔΨm (composite Z-score) ([2]; Conc 20 μM): −0.509; Viability (composite Z-score) (C2C12 myotubes; Conc 20 μM): 1.157 |
| C[C@@H]1C(=O)O[C@H]2[C@H]1CC[C@@]1(C)C=CC(=O)[C@@]3(C)O[C@@]213 [epoxy (4,5alpha)-4,5-dihydrosantonin] |  |  |  |  |  |  |  |  |  |  |  |  |  |  |  |  | mitoOX (mtOXPHOS transcripts; [5]): −0.901; MTT [1, 5]: 0.041; nucOX (nuOXPHOS transcripts; [5]): −0.614; cyt c (cytochrome c; [5]): 0.552; GE-HTS (OXPHOS gene expression; [5]): −0.736; ROS (reactive oxygen species; [5]): −1.367; ΔΨm [2, 5]: 0.199; Viability (C2C12 myotubes; [5]): 0.133 |
| CC(=O)O[C@@H]1CC2C(C)(C)C(=O)C3OC3[C@]2(C)C2CC[C@@]3(C)[C@H](c4ccoc4)OC(=O)C4OC43[C@@]21C (stereo partly drawn) [epoxygedunin] |  |  |  |  |  |  |  |  |  |  |  |  |  |  |  |  | mitoOX (composite Z-score) (mtOXPHOS transcripts; Conc 20 μM): −1.005; MTT (composite Z-score) ([1]; Conc 20 μM): −1.657; nucOX (composite Z-score) (nuOXPHOS transcripts; Conc 20 μM): −1.130; cyt c (composite Z-score) (cytochrome c; Conc 20 μM): 0.248; GE-HTS (composite Z-score) (OXPHOS gene expression; Conc 20 μM): −1.146; ROS (composite Z-score) (reactive oxygen species; Conc 20 μM): 0.409; ΔΨm (composite Z-score) ([2]; Conc 20 μM): 0.274; Viability (composite Z-score) (C2C12 myotubes; Conc 20 μM): 0.052 |
| C[C@]12CC[C@H]3C(=CCc4cc(O)ccc43)[C@@H]1CCC2=O [equilin] |  |  |  |  |  |  |  |  |  |  |  |  |  |  |  |  | mitoOX (mtOXPHOS transcripts): −0.676; MTT [1]: −2.270; nucOX (nuOXPHOS transcripts): −0.538; cyt c (cytochrome c): −0.069; GE-HTS (OXPHOS gene expression): −0.626; ROS (reactive oxygen species): 0.259; ΔΨm [2]: −0.408; Viability (C2C12 myotubes): −0.882 |
| C=C1CC[C@H](O)C/C1=C/C=C1\CCC[C@]2(C)[C@@H]([C@H](C)/C=C/[C@H](C)C(C)C)CC[C@@H]12 [ergocalciferol] |  |  |  |  |  |  |  |  |  |  |  |  |  |  |  |  | mitoOX (mtOXPHOS transcripts; [6]): 0.357; MTT [1, 6]: −1.658; nucOX (nuOXPHOS transcripts; [6]): 0.723; cyt c (cytochrome c; [6]): −0.118; GE-HTS (OXPHOS gene expression; [6]): 0.661; ROS (reactive oxygen species; [6]): 1.541; ΔΨm [2, 6]: −0.449; Viability (C2C12 myotubes; [6]): 0.372 |
| CC(C)[C@@H](C)C=C[C@@H](C)[C@H]1CC[C@H]2C3=CCC4CC(=O)CC[C@]4(C)[C@H]3CC[C@]12C (stereo partly drawn) [ergosta-7,22-dien-3-one] | −0.415 | −2.474 | −0.764 | 0.221 | −0.708 | 0.912 | −0.544 | −0.892 |  |  |  |  |  |  |  |  |  |
